# From patent US4711889A, “Schistosomicidal acridanone hydrazones” (Hoffman-La Roche Inc., priority 1986, dated 1987)
# Where a name gives a salt, the structure may show the parent alone.
# Test: acute toxicity, single oral administration to mice
# Conditions: mouse, in vivo
# Excerpt: The following Table contains the results obtained with representative compounds of the invention. In the Table there are given for each of listed compounds, the VD50 in mg/kg p.o. and the LD50 in mg/kg single oral administration to mice.
row,Compound,LD50 [mg/kg]
1,c1ccc2c(c1)c(=NN=C1NCCS1)c1ccccc1n2CCN1CCCC1 [10-[2-(1-pyrrolidinyl)ethyl]-9-acridanone (2-thiazolidinylidene)hydrazone],156 to 312
2,CCN(CC)CCn1c2ccccc2c(=NNc2nccs2)c2ccccc21.Cl.Cl [10-[2-(diethylamino)ethyl]-9-acridanone (2-thiazolyl)hydrazone dihydrochloride],> 5000
3,c1ccc2c(c1)c(=NNc1nccs1)c1ccccc1n2CCN1CCCCC1 [10-[2-(1-piperidinyl)ethyl]-9-acridanone (2-thiazolyl)hydrazone 1.5 HCl],312 to 625
4,CN(C)CCCn1c2ccccc2c(=NN=C2NCCS2)c2ccccc21 [10-[3-(dimethylamino)propyl]-9-acridanone (2-thiazolidinylidene)hydrazone],125 to 250
5,CN(C)CCCn1c2ccccc2c(=NNc2nccs2)c2ccccc21.Cl.Cl [10-[3-(dimethylamino)propyl]-9-acridanone (2-thiazolyl)hydrazone dihydrochloride],312 to 625
6,CC(=O)N1CCN(CCn2c3ccccc3c(=NN=C3NCCS3)c3ccccc32)CC1 [10-[2-(4-acetyl-1-piperazinyl)ethyl]-9-acridanone (2-thiazolidinylidene)hydrazone],1250 to 2500
7,CN(C)CCn1c2ccccc2c(=NNc2nccs2)c2ccccc21.Cl.Cl [10-[2-(dimethylamino)ethyl]-9-acridanone (2-thiazolyl)hydrazone dihydrochloride],312 to 625
8,CN(C)CCn1c2ccccc2c(=NN=C2NCCS2)c2ccccc21 [10-[2-(dimethylamino)ethyl]-9-acridanone (2-thiazolidinylidene)hydrazone],250 to 500
9,CC(=O)N1CCN(CCn2c3ccccc3c(=NNc3nccs3)c3ccccc32)CC1.Cl.Cl [10-[2-(4-acetyl-1-piperazinyl)ethyl]-9-acridanone (2-thiazolyl)hydrazone dihydrochloride],312 to 625
10,CN1CCN(CCn2c3ccccc3c(=NN=C3NCCS3)c3ccccc32)CC1 [10-[2-(4-methyl-1-piperazinyl)ethyl]-9-acridanone (2-thiazolidinylidene)hydrazone],156 to 312
11,Cl.Cl.NCCn1c2ccccc2c(=NNc2nccs2)c2ccccc21 [10-(2-aminoethyl)-9-acridanone 2-thiazolylhydrazone dihydrochloride],156 to 312
12,CCN(CC)CCn1c2ccccc2c(=NN=C2NCCS2)c2ccccc21 [10-[2-(diethylamino)ethyl]-9-acridanone (2-thiazolidinylidene)hydrazone],312 to 625
13,CN1CCN(CCn2c3ccccc3c(=NNc3nccs3)c3ccccc32)CC1 [10-[2-(4-methyl-1-piperazinyl)ethyl]-9-acridanone (2-thiazolyl)hydrazone. 2.5 HCl],625 to 1250
